Reference: the supplement of paper PMC10307832

Legend:
Assay in all cases: relative viability (nuclei count vs DMSO), 5 days (fraction); higher = more cells survive
[1] = compound: Nc1ncn([C@H]2C[C@H](O)[C@@H](CO)O2)c(=O)n1 [Decitabine] + Nc1nc2[nH]cc(CCc3ccc(C(=O)N[C@@H](CCC(=O)O)C(=O)O)cc3)c2c(=O)[nH]1 [Pemetrexed] (partner 0.2 µM)
Method in brief: (§1)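 Lung cancer cell lines in 1536-well plates got either a single drug or a fixed anchor-drug dose together with five library-drug doses (not always all listed) in √10 steps, by pin tool, on the day after seeding. Nuclei were counted after 5 days, and relative viability is the treated-to-vehicle ratio of nuclei counts. Values are medians of duplicate plates.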

[2] = compound: O=C(C[C@H]1NCCC[C@@H]1O)Cn1cnc2cc(Br)c(Cl)cc2c1=O (racemic) [Halofuginone] + Nc1ncn([C@H]2C[C@H](O)[C@@H](CO)O2)c(=O)n1 [Decitabine] (partner 2 µM)
Method in brief: as §1

[3] = compound: Nc1ncn([C@H]2C[C@H](O)[C@@H](CO)O2)c(=O)n1 [Decitabine] + N=C(N)NC(=N)NCCc1ccccc1 [Phenformin] (partner 250 µM)
Method in brief: as §1

[4] = compound: Nc1ncn([C@H]2C[C@H](O)[C@@H](CO)O2)c(=O)n1 [Decitabine] + CC(=O)Nc1cccc(-n2c(=O)n(C3CC3)c(=O)c3c(Nc4ccc(I)cc4F)n(C)c(=O)c(C)c32)c1 [Trametinib] (partner 0.02 µM)
Method in brief: as §1

Cell Line: LC-2-ad
- relative viability ([1]; first compound 0.04 µM): 0.288
- relative viability ([1]; first compound 0.1265 µM): 0.255
- relative viability ([1]; first compound 0.4 µM): 0.27
- relative viability ([1]; first compound 1.265 µM): 0.239
- relative viability ([1]; first compound 4 µM): 0.266
- relative viability ([2]; first compound 0.001 µM): 0.7
- relative viability ([2]; first compound 0.003162 µM): 0.857
- relative viability ([2]; first compound 0.01 µM): 0.806
- relative viability ([2]; first compound 0.03162 µM): 0.892
- relative viability ([2]; first compound 0.1 µM): 0.687
- relative viability ([3]; first compound 0.04 µM): 0.512
- relative viability ([3]; first compound 0.1265 µM): 0.552
- relative viability ([3]; first compound 0.4 µM): 0.509
- relative viability ([3]; first compound 1.265 µM): 0.419
- relative viability ([3]; first compound 4 µM): 0.416
- relative viability ([4]; first compound 0.04 µM): 0.778
- relative viability ([4]; first compound 0.1265 µM): 0.837
- relative viability ([4]; first compound 0.4 µM): 0.763
- relative viability ([4]; first compound 1.265 µM): 0.651
- relative viability ([4]; first compound 4 µM): 0.573

Cell Line: NCI-H596
- relative viability ([1]; first compound 0.04 µM): 0.582
- relative viability ([1]; first compound 0.1265 µM): 0.456
- relative viability ([1]; first compound 0.4 µM): 0.338
- relative viability ([1]; first compound 1.265 µM): 0.44
- relative viability ([1]; first compound 4 µM): 0.484
- relative viability ([2]; first compound 0.001 µM): 1.01
- relative viability ([2]; first compound 0.003162 µM): 0.961
- relative viability ([2]; first compound 0.01 µM): 1.09
- relative viability ([2]; first compound 0.03162 µM): 1.01
- relative viability ([2]; first compound 0.1 µM): 0.775
- relative viability ([3]; first compound 0.04 µM): 0.815
- relative viability ([3]; first compound 0.1265 µM): 0.666
- relative viability ([3]; first compound 1.265 µM): 0.582
- relative viability ([3]; first compound 4 µM): 0.53
- relative viability ([4]; first compound 0.04 µM): 0.881
- relative viability ([4]; first compound 0.1265 µM): 0.744
- relative viability ([4]; first compound 0.4 µM): 0.509
- relative viability ([4]; first compound 1.265 µM): 0.575
- relative viability ([4]; first compound 4 µM): 0.542

Cell Line: NCI-H1437
- relative viability ([1]; first compound 0.04 µM): 0.318
- relative viability ([1]; first compound 0.1265 µM): 0.276
- relative viability ([1]; first compound 0.4 µM): 0.295
- relative viability ([1]; first compound 1.265 µM): 0.235
- relative viability ([1]; first compound 4 µM): 0.214
- relative viability ([2]; first compound 0.001 µM): 0.621
- relative viability ([2]; first compound 0.003162 µM): 0.555
- relative viability ([2]; first compound 0.01 µM): 0.513
- relative viability ([2]; first compound 0.03162 µM): 0.522
- relative viability ([2]; first compound 0.1 µM): 0.522
- relative viability ([3]; first compound 0.04 µM): 0.29
- relative viability ([3]; first compound 0.1265 µM): 0.311
- relative viability ([3]; first compound 0.4 µM): 0.209
- relative viability ([3]; first compound 1.265 µM): 0.233
- relative viability ([3]; first compound 4 µM): 0.26
- relative viability ([4]; first compound 0.04 µM): 0.444
- relative viability ([4]; first compound 0.1265 µM): 0.412
- relative viability ([4]; first compound 0.4 µM): 0.404
- relative viability ([4]; first compound 1.265 µM): 0.337
- relative viability ([4]; first compound 4 µM): 0.342

Cell Line: NCI-H727
- relative viability ([2]; first compound 0.001 µM): 0.85
- relative viability ([2]; first compound 0.003162 µM): 0.764
- relative viability ([2]; first compound 0.01 µM): 0.954
- relative viability ([2]; first compound 0.03162 µM): 0.944
- relative viability ([2]; first compound 0.1 µM): 0.723
- relative viability ([3]; first compound 0.04 µM): 0.549
- relative viability ([3]; first compound 0.1265 µM): 0.503
- relative viability ([3]; first compound 0.4 µM): 0.367
- relative viability ([3]; first compound 1.265 µM): 0.423
- relative viability ([3]; first compound 4 µM): 0.362
- relative viability ([4]; first compound 0.04 µM): 0.396
- relative viability ([4]; first compound 0.1265 µM): 0.377
- relative viability ([4]; first compound 0.4 µM): 0.344
- relative viability ([4]; first compound 1.265 µM): 0.372
- relative viability ([4]; first compound 4 µM): 0.363

Cell Line: PC-3 [JPC-3]
- relative viability ([1]; first compound 0.1265 µM): 0.845
- relative viability ([1]; first compound 0.4 µM): 0.439
- relative viability ([1]; first compound 1.265 µM): 0.528
- relative viability ([1]; first compound 4 µM): 0.586
- relative viability ([2]; first compound 0.001 µM): 0.77
- relative viability ([2]; first compound 0.003162 µM): 0.832
- relative viability ([2]; first compound 0.01 µM): 0.861
- relative viability ([2]; first compound 0.03162 µM): 0.923
- relative viability ([2]; first compound 0.1 µM): 0.781
- relative viability ([3]; first compound 0.04 µM): 0.372
- relative viability ([3]; first compound 0.1265 µM): 0.452
- relative viability ([3]; first compound 0.4 µM): 0.393
- relative viability ([3]; first compound 1.265 µM): 0.386
- relative viability ([3]; first compound 4 µM): 0.379
- relative viability ([4]; first compound 0.1265 µM): 0.7
- relative viability ([4]; first compound 0.4 µM): 0.498
- relative viability ([4]; first compound 1.265 µM): 0.485
- relative viability ([4]; first compound 4 µM): 0.657
